Results reported in paper PMC8058733, “A pain killer without analgesic tolerance designed by co-targeting PSD-95-nNOS interaction and α2-containning GABAARs” (Theranostics, 2021).

System: CFA-induced inflammatory pain
Assay: CFA-induced inflammatory pain, paw withdrawal threshold
Format: in vivo
Details: mice, ZL006-05 60 mg/kg, i.g., given 24 h after CFA injection
Protocol: For mice, the threshold for 50% PWT response to mechanical stimulus was quantified by assessing the paw withdrawal threshold using von Frey filaments (Touch-Test TM Sensory Evaluator, North coast Medical, Inc.). Mice were placed individually in a plastic cage (4.5 × 5 × 11 cm) with a wire mesh bottom which allowed full access to the paws. Behavioral accommodation was allowed for 20-30 min until cage exploration and major grooming activities ceased. Mechanical threshold was measured by applying a von Frey filament to the ventral surface of the right hind paw until a positive sign of pain behavior was elicited. The paradigm for assessing the threshold was as follows. Von Frey filaments with logarithmically incremental stiffness (0.02-2 g) were applied serially to the paw by the up-down method. […]
(A) Time course of SNL-induced thermal hyperalgesia after treating with ZL006-05 (60 mg/kg, i.g.) in mice. Paw withdrawal latency response to thermal stimulation was detected at 0, 1, 2, 4, 6, 8, 10, 12 and 24 h after drug administration. ( B) Areas under the curve of paw withdrawal latency 0-24 h after treatment calculated from ( A) (F (1,16) = 43.07, ***p < 0.001, two-tailed t-test, n = 9). […] (E) Areas under the curve of paw withdrawal latency 0-24 h after treatment calculated from (D) (F (1,18) = 71.73, ***p <0.001, two-tailed t-test, n = 10). […]

CC1(C)C2CCC1(C)C(OC(=O)c1ccc(NCc3cc(Cl)cc(Cl)c3O)cc1O)C2 (stereo not shown) [ZL006-05]
Effect on CFA-induced inflammatory pain: reduced
